Measured values reported in US8628771B2, “CA IX-specific inhibitors” (Institute of Virology Slovak Academy of Sciences, priority 2002, dated 2014).
Where “and” joins values, the source holds several entries; their conditions need not be identical. Equal values may be shown once. Where a name gives a salt, the structure may show the parent alone. Read-outs that look alike come from different tables or passages of the source. Values belong to the molecule of their own block, whether it stands above or below them.

Assays:
MDCK-CA IX cells [1] = experiment: Extracellular pH (pHe) of sulfonamide-treated MDCK-CA IX cells; assay type: cell-based, canine; details: 48 hours; for effect on extracellular acidification: hypoxia (2% O2); for effect on the normoxic pHe: normoxia
Description: (§1) To maintain the standard conditions, the cells were always plated in 3 ml of culture medium at a density of 0.8-1×10^6 per 6 cm dish 24 hours before the transfer to hypoxia (2% O2 and 5% CO2 balanced with N2) generated in a Napco 7000 incubator. Parallel normoxic dishes were incubated in air with 5% CO2.
(§2) Compound 6 sulfonamide [4-(2-aminoethyl)-benzenesulfonamide] was from Sigma-Aldrich. […] The sulfonamides were dissolved in PBS with 20% DMSO at 100 mM concentration and diluted in a culture medium to a required final concentration just before their addition to cells. The cells were incubated for 48 hours in hypoxia and normoxia, respectively, the pH of the culture medium was measured and the binding of the FITC-labeled Compound 92 to living cells, washed three times with PBS, was viewed by a Nikon E400 epifluorescence microscope.

hCA IX = hCA IX (Homo sapiens, UniProt Q16790); experiment: CA CO2 hydrase activity assay, tumor-associated isozyme hCA IX
Description: An SX.18MV-R Applied Photophysics stopped-flow instrument has been used for assaying the CA CO2 hydration activity assays [44]. […] Inhibitor and enzyme solutions were preincubated together for 10 min at room temperature prior to assay, in order to allow for the formation of the E-I complex.

human red cells [2] = details: pH 7.4
[3] = from reference [58]; cited from earlier work
bCA IV = target: T1, bCA IV (Bos taurus, UniProt Q95323); experiment: CA esterase activity assay, isozyme bCA IV; assay type: biochemical, bovine
T1 construct: CA IV was isolated from bovine lung microsomes as described by Maren et al; from tissue; host or cells: bovine lung microsomes
T1 sequence (Q95323 19-284): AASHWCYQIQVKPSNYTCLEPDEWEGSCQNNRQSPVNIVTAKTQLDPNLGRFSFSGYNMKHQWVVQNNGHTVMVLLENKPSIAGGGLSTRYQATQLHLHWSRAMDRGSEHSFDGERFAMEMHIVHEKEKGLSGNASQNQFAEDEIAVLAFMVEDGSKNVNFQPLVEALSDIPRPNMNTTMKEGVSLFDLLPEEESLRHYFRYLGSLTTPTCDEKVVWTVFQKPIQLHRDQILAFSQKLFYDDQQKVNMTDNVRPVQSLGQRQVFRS

hCA II = target: T2, hCA II (Homo sapiens, UniProt P00918); experiment: CA esterase activity assay, isozyme hCA II; assay type: biochemical; details: Table 2; human (cloned) isozymes; read-out: KI hCA II
T2 construct: made in house; host or cells: Escherichia coli BL21 (DE3)
Description: (§3) Human CA I and CA II cDNAs were expressed in Escherichia coli strain BL21 (DE3) from the plasmids pACA/hCA I and pACA/hCA II described by Lindskog's group [54].
(§4) Non-enzymatic hydrolysis rates were always subtracted from the observed rates. […] Inhibitor and enzyme solutions were preincubated together for 10 min at room temperature prior to assay, in order to allow for the formation of the E-I complex. The inhibition constant KI was determined as described in references [44, 76].

hCA I = target: T3, hCA I (Homo sapiens, UniProt P00915); experiment: CA esterase activity assay, isozyme hCA I; assay type: biochemical; details: Table 2; human (cloned) isozymes; read-out: KI hCA I
T3 construct: made in house; host or cells: Escherichia coli BL21 (DE3)
Description: as §3, §4

SiHa cells [4] = experiment: Binding of FITC-labeled sulfonamide to SiHa cells (fluorescence microscopy); assay type: cell-based, human; details: hypoxia versus normoxia, 48 hour incubation
SiHa cells [5] = experiment: Extracellular pH (pHe) of sulfonamide-treated SiHa cells; assay type: cell-based, human; details: hypoxic SiHa cells, 1 mM, 48 hours
Description: as §1, §2

HeLa cells [6] = experiment: Extracellular pH (pHe) of sulfonamide-treated HeLa cells; assay type: cell-based, human; details: hypoxic HeLa cells, 1 mM, 48 hours
Description: as §1, §2

HeLa cells [7] = experiment: Binding of FITC-labeled sulfonamide to HeLa cells (fluorescence microscopy); assay type: cell-based, human; details: hypoxia versus normoxia, 48 hour incubation
MDCK-CA IX cells [8] = experiment: Binding of FITC-labeled sulfonamide to MDCK-CA IX cells (fluorescence microscopy); assay type: cell-based, canine; details: 48 hours
Description: as §1, §2

human red cells [9] = experiment: Membrane permeance assay: ex vivo penetration through red blood cells; details: pH 7.4; for [sulfonamide] in red blood cells, HPLC: HPLC method; for [sulfonamide] in red blood cells, ES: electronic spectroscopic method; for [sulfonamide] in red blood cells, EI: enzymatic method

T3 sequence (P00915 whole entry): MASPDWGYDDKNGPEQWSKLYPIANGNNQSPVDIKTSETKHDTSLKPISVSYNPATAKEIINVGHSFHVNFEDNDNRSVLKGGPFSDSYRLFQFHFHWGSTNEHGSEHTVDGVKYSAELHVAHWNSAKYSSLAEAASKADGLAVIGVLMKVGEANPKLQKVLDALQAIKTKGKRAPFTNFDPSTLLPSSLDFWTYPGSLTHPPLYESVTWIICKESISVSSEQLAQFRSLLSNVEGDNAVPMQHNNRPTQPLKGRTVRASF

melting point: 203 to 205 °C
Molecule: CC(C)(C)c1cc(-c2ccccc2)cc(-c2ccccc2)[n+]1-c1ccc(S(=O)(=O)Nc2nnc(S(N)(=O)=O)s2)cc1 (as salt: perchlorate) [Compound 85, 1-N-[5-Sulfamoyl-1,3,4-thiadiazol-2-yl-(aminosulfonyl-4-phenyl)]-2-tert-butyl-4,6-diphenylpyridinium perchlorate]

melting point: > 300 °C
Molecule: NS(=O)(=O)c1nnc(NS(=O)(=O)c2ccc(-[n+]3c(-c4ccccc4)cc(-c4ccccc4)cc3-c3ccccc3)cc2)s1 (as salt: perchlorate) [Compound 87, 1-N-[5-Sulfamoyl-1,3,4-thiadiazol-2-yl-(aminosulfonyl-4-phenyl)]-2,4,6-triphenyl-pyridinium perchlorate]

melting point: 218 to 220 °C
Molecule: NS(=O)(=O)c1nnc(NS(=O)(=O)c2ccc(-[n+]3c(-c4ccccc4)cccc3-c3ccccc3)cc2)s1 (as salt: perchlorate) [Compound 88, 1-N-[5-Sulfamoyl-1,3,4-thiadiazol-2-yl-(aminosulfonyl-4-phenyl)]-2,6-diphenylpyridinium perchlorate]

melting point: > 300 °C
Molecule: Cc1cc(C)[n+](-c2ccc(S(=O)(=O)Nc3nnc(S(N)(=O)=O)s3)cc2)c(C)c1C (as salt: perchlorate) [Compound 89, 1-N-[5-Sulfamoyl-1,3,4-thiadiazol-2-yl-(aminosulfonyl-4-phenyl)]-2,3,4,6-tetramethylpyridinium perchlorate]

incubation period to saturation of hCA I and hCA II in erythrocytes with inhibitor (human red cells [2]): 60 min
Molecule: Benzolamide [reference compound]
pKa for the second sulfonamido group [3]: 3.2

Continued, molecule first:

Molecule: CCCc1cc(-c2ccccc2)cc(-c2ccccc2)[n+]1-c1ccc(S(=O)(=O)Nc2nnc(S(N)(=O)=O)s2)cc1 (as salt: perchlorate) [Compound 82, 1-N-[5-Sulfamoyl-1,3,4-thiadiazol-2-yl-(aminosulfonyl-4-phenyl)]-2-n-propyl-4,6-diphenylpyridinium perchlorate]
melting point: 214 to 215 °C

Molecule: CC(C)c1cc(-c2ccccc2)cc(-c2ccccc2)[n+]1-c1ccc(S(=O)(=O)Nc2nnc(S(N)(=O)=O)s2)cc1 (as salt: perchlorate) [Compound 83, 1-N-[5-Sulfamoyl-1,3,4-thiadiazol-2-yl-(aminosulfonyl-4-phenyl)]-2-iso-propyl-4,6-diphenylpyridinium perchlorate]
melting point: 186 to 188 °C

Molecule: CCCCc1cc(-c2ccccc2)cc(-c2ccccc2)[n+]1-c1ccc(S(=O)(=O)Nc2nnc(S(N)(=O)=O)s2)cc1 (as salt: perchlorate) [Compound 84, 1-N-[5-Sulfamoyl-1,3,4-thiadiazol-2-yl-(aminosulfonyl-4-phenyl)]-2-n-butyl-4,6-diphenylpyridinium perchlorate]
melting point: 241 to 243 °C

Molecule: NCCc1ccc(S(N)(=O)=O)cc1 [Compound 6, 4-(2-aminoethyl)-benzenesulfonamide]
effect on extracellular acidification (MDCK-CA IX cells [1]): able to reduce the extracellular acidification | effect on the normoxic pHe (MDCK-CA IX cells [1]): negligible

Molecule: Nc1ccc(S(=O)(=O)Nc2nnc(S(N)(=O)=O)s2)cc1 [Compound 15, 5-(4-aminobenzenesulfonylamino)-1,3,4-thiadiazole-2-sulfonamide]
Ki (hCA IX; KI against CA IX): 14 to 50 nM | Ki (hCA IX; read-out: KI against CA IX): 38 nM | Ki (hCA IX; read-out: KI hCA IX): 38 nM | incubation period to saturation of hCA I and hCA II in erythrocytes with inhibitor (human red cells [2]; human, 2 mM): 60 min | [sulfonamide] in red blood cells, EI (human red cells [2]; human, 30 min, 2 mM): 122 µM | [sulfonamide] in red blood cells, ES (human red cells [2]; human, 30 min, 2 mM): 127 µM | [sulfonamide] in red blood cells, HPLC (human red cells [2]; human, 30 min, 2 mM): 125 µM | [sulfonamide] in red blood cells, EI (human red cells [2]; human, 60 min, 2 mM): 158 µM | [sulfonamide] in red blood cells, ES (human red cells [2]; human, 60 min, 2 mM): 156 µM | [sulfonamide] in red blood cells, HPLC (human red cells [2]; human, 60 min, 2 mM): 154 µM | pKa for the second sulfonamido group [3]: 3.2 | Ki (bCA IV): ~5 nM | Ki (bCA IV; read-out: KI bCA IV): 5 nM and 5.1 nM

Molecule: Cc1cc(C)[n+](Cc2ccc(S(N)(=O)=O)cc2)c(C)c1 [Compound 39]
effect on extracellular acidification (MDCK-CA IX cells [1]): able to reduce the extracellular acidification | effect on the normoxic pHe (MDCK-CA IX cells [1]): negligible | Ki (hCA IX; read-out: KI hCA IX, Table 2, catalytic domain of the human, cloned isozyme): 38 nM | Ki (hCA II): 50 nM | Ki (bCA IV; Table 2, from bovine lung microsomes, read-out: KI bCA IV): 92 nM | Ki (hCA I): 7000 nM

Molecule: NS(=O)(=O)c1ccc(CNC(=S)Nc2ccc3c(c2)C(=O)OC32c3ccc(O)cc3Oc3cc(O)ccc32)cc1 [Compound 92]
accumulation of FITC-labeled compound in cells (SiHa cells [4]): accumulated in the hypoxic HeLa and SiHa cells | effect on extracellular acidification (MDCK-CA IX cells [1]): able to reduce the extracellular acidification | effect on the normoxic pHe (MDCK-CA IX cells [1]): negligible | effect on acidosis (pHe) (SiHa cells [5]): partially reduced | effect on acidosis (pHe) (HeLa cells [6]): partially reduced | accumulation of FITC-labeled compound in cells (HeLa cells [7]): accumulated in the hypoxic HeLa and SiHa cells | detection of FITC-labeled compound in cells (MDCK-CA IX cells [8]; hypoxic MDCK-CA IX cells): detected only in hypoxic MDCK-CA IX cells | detection of FITC-labeled compound in cells (MDCK-CA IX cells [8]; normoxic MDCK-CA IX cells and mock-transfected controls): absent

Molecule: CC(=O)/N=c1/sc(S(N)(=O)=O)nn1C [MZA, methazolamide]
[sulfonamide] in red blood cells, HPLC (human red cells [9]; t = 30 min, 2 mM sulfonamide in 5 mM Tris buffer): 170 µM | [sulfonamide] in red blood cells, ES (human red cells [9]; t = 30 min, 2 mM sulfonamide): 169 µM | [sulfonamide] in red blood cells, EI (human red cells [9]; t = 30 min, 2 mM sulfonamide): 165 µM | [sulfonamide] in red blood cells, HPLC (human red cells [9]; t = 60 min, 2 mM sulfonamide): 168 µM | [sulfonamide] in red blood cells, ES (human red cells [9]; t = 60 min, 2 mM sulfonamide): 168 µM | [sulfonamide] in red blood cells, EI (human red cells [9]; t = 60 min, 2 mM sulfonamide): 167 µM
